Settings: for speed of sound: Brillouin scattering; for vapor or sublimation pressure: Closed cell (Static) method

CCCCCCC [heptane]
speed of sound [m/s], Liquid
Settings	1000 kPa	2500 kPa	4000 kPa	5500 kPa	7000 kPa	8500 kPa
302.15 K	1112.9	1126.4	1139	1152	1163.2	1174.3
318.15 K	1054.1	1066.6	1079	1091	1102	1113
333.15 K	997.8	1010	1022	1034	1045	1057
348.15 K	940.3	952.9	965.3	977.6	989.7	1002
363.15 K	881.6	895.3	908.8	922	934.9	947.6
378.15 K	821.8	837.2	852.2	866.8	881	894.7
393.15 K	760.8	778.7	795.8	812.2	827.9	842.9
408.15 K	698.6	719.6	739.4	758.2	775.8	792.2
418.15 K	656.6	680	701.9	722.4	741.5	759.1
428.15 K	614	640.1	664.4	686.9	707.6	726.4
438.15 K	570.9	600	626.9	651.6	674	694.3
448.15 K	527.2	559.7	589.5	616.6	640.9	662.6
453.15 K	505.2	539.5	570.8	599.1	624.5	647
458.15 K	483.1	519.2	552.1	581.7	608.2	631.4
463.15 K	–	498.9	533.4	564.4	592	616
468.15 K	–	478.5	514.7	547.2	559.8	600.8
473.15 K	–	458	496	530	543.9	570.6
478.15 K	–	437.5	477.4	512	528.1	555.7
483.15 K	–	416.9	458.7	495.7	512.3	540.9
488.15 K	–	396.3	440	478.7	496.7	526.3
493.15 K	–	375.7	421.4	461.7	–	–
498.15 K	–	354.9	402.8	444.8	–	–
503.15 K	–	334.2	384.1	428	–	–
508.15 K	–	313.3	365.5	411.2	–	–
513.15 K	–	292.4	346.9	394.5	–	–
518.15 K	–	271.5	328.3	377.8	–	–
523.15 K	–	–	309.7	361.2	–	–
528.15 K	–	–	291.1	344.6	–	–

Settings	speed of sound, Gas [m/s]	speed of sound, Liquid [m/s]	vapor or sublimation pressure, Liquid [kPa]
302.15 K	–	1108	12
318.15 K	–	1042	31
333.15 K	–	981.5	50
348.15 K	–	921.1	84
363.15 K	–	861.2	116
378.15 K	–	801.6	152
393.15 K	–	742.3	204
408.15 K	170.3	683.1	286
418.15 K	168.1	643.5	352
428.15 K	165.9	603.9	441
438.15 K	163.4	564	535
448.15 K	160.5	523.9	654
453.15 K	158.8	503.6	711
458.15 K	157	483.3	780
463.15 K	155	462.8	853
468.15 K	152.8	442.2	935
473.15 K	150.3	421.3	1022
478.15 K	147.5	400.3	1114
483.15 K	144.5	379	1203
488.15 K	141.2	357.4	1307
493.15 K	137.5	335.4	1409
498.15 K	133.4	313	1532
503.15 K	129	290.1	1649
508.15 K	124.1	266.6	1781
513.15 K	118.7	242.4	1910
518.15 K	112.8	217.3	2049
523.15 K	106.4	190.9	2201
528.15 K	99.37	162.7	2358
533.15 K	91.71	131.9	2519
536.15 K	86.78	111.1	2630

CCCCCC [hexane]
speed of sound [m/s], Liquid
Settings	1000 kPa	2500 kPa	4000 kPa	5500 kPa	7000 kPa	7500 kPa	8500 kPa
300.15 K	1080	1090	1102	1115	1129	–	1140
313.15 K	1027	1038	1049	1062	1077	–	1092
328.15 K	964.1	975.9	988.6	1002	1017	–	1032
343.15 K	900.3	913.8	927.8	942.3	957.3	–	972.8
353.15 K	857	872	887.1	902.5	918.1	–	934
363.15 K	813.22	829.9	846.4	862.9	879.3	–	895.7
373.15 K	768.8	787.4	805.6	823.4	840.9	–	857.9
383.15 K	723.8	744.7	764.8	784.1	802.8	–	820.7
393.15 K	678.3	701.6	723.8	744.9	765	–	783.9
403.15 K	632.1	658.2	682.8	705.9	727.5	–	747.7
413.15 K	585.4	614.5	641.7	667	690.4	–	711.9
423.15 K	538.1	570.5	600.6	628.3	653.7	–	676.7
433.15 K	490.1	526.2	559.3	589.7	–	617.3	642
443.15 K	–	481.5	518	551.3	581.2	–	607.8
448.15 K	–	459.1	497.4	532.1	563.3	–	590.9
453.15 K	–	436.6	476.7	513	545.4	–	574.1
458.15 K	–	414	456	493.9	527.7	–	557.4
463.15 K	–	391.3	435.2	474.8	510.1	–	540.9
468.15 K	–	368.5	414.5	455.8	492.5	–	524.5
473.15 K	–	345.7	393.7	436.8	475	–	508.2
478.15 K	–	322.8	372.9	417.9	457.6	–	492.1
483.15 K	–	–	352.1	399	440.3	–	476.1
488.15 K	–	–	331.3	380.1	–	–	–
493.15 K	–	–	310.5	361.3	–	–	–
498.15 K	–	–	289.6	342.5	–	–	–
503.15 K	–	–	268.8	323.7	–	–	–
506.15 K	–	–	256.2	312.5	–	–	–

Settings	speed of sound, Gas [m/s]	speed of sound, Liquid [m/s]	vapor or sublimation pressure, Liquid [kPa]
300.15 K	–	1073	14
313.15 K	–	993	63
328.15 K	–	926.8	94
343.15 K	–	882.7	122
353.15 K	–	838.8	161
363.15 K	–	794.9	214
373.15 K	–	751	260
383.15 K	178.6	707.2	331
393.15 K	176.6	663.4	413
403.15 K	174.3	619.5	512
413.15 K	171.6	575.6	627
423.15 K	168.3	531.6	762
433.15 K	164.2	487.5	924
443.15 K	159.4	443.1	1113
448.15 K	156.6	420.7	1210
453.15 K	153.5	398.2	1322
458.15 K	150.1	375.6	1447
463.15 K	146.4	352.8	1563
468.15 K	142.2	329.8	1700
473.15 K	137.6	306.4	1843
478.15 K	132.5	282.6	1992
483.15 K	126.9	258.2	2144
488.15 K	120.6	233	2313
493.15 K	113.4	206.4	2491
498.15 K	105.3	177.3	2677
503.15 K	95.91	142	2878
506.15 K	89.34	109.7	2991

Cc1ccccc1 [toluene]
Liquid
Settings	speed of sound [m/s]
323.15 K	1200.8
423.15 K	806
523.15 K	425.5
